Results: US9932479B2, “Dyes and compositions, and processes for using same in analysis of protein aggregation and other applications” (Enzo Biochem, Inc., priority 2009, dated 2018)

Tests used:
Rabbit-anti-goat IgG [1] = experiment: Chemical shift assay based on internal tryptophan fluorescence; assay type: biochemical; conditions: 4.55 M urea; from chemical shift curve FIG. 16 (A)
Method: (A) Chemical shift assay based on internal tryptophan fluorescence: Rabbit-anti-goat IgG (Pel Freeze) in 1×PBS buffer of pH 7.4 was mixed with urea in 1×PBS to achieve a final IgG concentration of 0.25 mg/mL. After mixing on ice for 10 minutes, the fluorescence emission intensity at 330 nm was recorded by exciting at 280 nm using a MD-5020 fluorimeter (Phototechnology International). A chemical shift curve was plotted based on internal tryptophan fluorescence intensity at each given urea concentration. Urea denatures proteins but prevents them from aggregating.

[2] = Fluorescence excitation and emission spectra of dye freely dissolved in buffer; assay type: physicochemical; conditions: 50 mM Tris-HCl, pH 7.8, 10 μM dye, room temperature
Method: (§1) Fluorescent readings were carried out in 50 mM Tris-HCl, pH 7.8 using 10 μM dye. […] Fluorescence excitation and emission spectra were collected on a Cary Eclipse fluorescence spectrophotometer (Varian, Australia). Fluorescence spectra were measured with excitation and emission slit widths set to 5 nm, and at a constant PMT voltage. Spectroscopic measurements were performed in standard quartz cells. All measurements were made at the respective excitation maxima of each dye. All measurements were carried out at room temperature.

[3] = molecular target: T1, recombinant human alpha-synuclein (ASN) aggregate (Homo sapiens, UniProt P37840); experiment: Fluorescence excitation and emission spectra of dye in the presence of aggregated alpha-synuclein; assay type: binding; conditions: 1 μM aggregated ASN, 50 mM Tris-HCl, pH 7.8, 10 μM dye
T1 construct: purchased Sigma-Aldrich
Method: as §1

[4] = system: goat-anti-mouse IgG aggregate; experiment: Fluorescence enhancement (aggregate/native IgG) in the presence of excipients; assay type: binding; conditions: for Fluorescence enhancement (aggregate/native IgG): 2.8 μM IgG, 0.625 μM dye
Method: IgG aggregate was prepared by adjusting 5.83 mg/ml of purified goat-anti-mouse IgG (H&L, Pel Freez, Rogers, Ark.) to pH 2.7 using HCl and incubating at 22° C. for 24 hours. The assay was performed using 2.8 μM IgG, either native or aggregated, and a dye concentration of 0.625 μM. The protein and dye were mixed together for 15 minutes at 22° C., then this was further incubated in the presence of the excipients shown in the table. The fluorescence intensity of S-25, Tol3 and Y2150 were determined with a FLUOstar OPTIMA plate reader (BMG LABTECH) at excitation wavelength of 550 nm and emission wavelength of 610 nm; while the fluorescence intensity for Thioflavin-T was determined using a SpectraMAX GeminiXS (Molecular device, with Softmax Pro 7.0) using an excitation wavelength of 435 nm and emission wavelength of 495 nm. The fluorescence enhancement (aggregate/native IgG) is shown.

β-lactoglobulin (BLG) = molecular target: T2, β-lactoglobulin (BLG) (Bos taurus, UniProt P02754); experiment: Thermal shift assay of BLG aggregation; assay type: binding; conditions: BLG 4 or 16 mg/mL, heating 28° C. to 90° C.
T2 sequence (P02754 17-178): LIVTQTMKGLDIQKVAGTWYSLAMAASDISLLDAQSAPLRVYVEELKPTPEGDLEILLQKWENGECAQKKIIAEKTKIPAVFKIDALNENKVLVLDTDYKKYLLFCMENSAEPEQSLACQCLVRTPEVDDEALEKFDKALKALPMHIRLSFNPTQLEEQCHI
Method: A solution containing 4 or 16 mg/mL of β-lactoglobulin (BLG) and 2×SYPRO® Orange dye (Molecular Probes, supplied as 5000× with unknown concentration) or 4 μM TOL3 or 4 μM S25 was prepared using 1×PBS, pH 7.4 as the dilution buffer. This solution was then loaded into LightCycler® capillaries (20 μL, Roche Diagnostics GmbH). These capillaries were then mounted on the sample holder of a LightCycler® 480 Real-Time PCR System (Roche), programmed to heat from 28° C. to 90° C. at 3° C./min, followed by cooling down to 28° C. at the same rate. The thermal shift curves were achieved by plotting fluorescence intensity vs. temperature. After the heating cycle, protein aggregates were visually apparent.

Rabbit-anti-goat IgG [5] = experiment: Fluorescence response to unfolded versus aggregated IgG in 4.55 M urea; assay type: binding; conditions: 6.67 μM Tol3
Method: (B) A solution containing aggregated IgG (formed as in Example 13 (B)) or monomeric IgG at 0.033 mg/mL, 4.55 M urea and 6.67 μM Tol3 was prepared and transferred into a microplate. After incubating at 4° C. degree for about 10 minutes, the fluorescence was recorded. Two control solutions without IgG, but with the same concentration of TOl3, were included, one including 4.55M urea, another without urea. From the previous chemical shift curve generated (seen in FIG. 16 (A)), 4.55 M urea is known to unfold approximately 60% of the IgG.

ß-lactoglobulin = molecular target: T3, ß-lactoglobulin (Bos taurus, UniProt P02754); experiment: Chaperone activity assay: heat-induced BLG aggregation, Tol3/S25 readout; assay type: biochemical; conditions: 0.4 mg/ml HSP 27, 8 mg/ml ß-lactoglobulin (mass ratio 1:20), 68° C.
T3 sequence (P02754 17-178): T2 sequence (P02754 17-178)
Method: Aggregation of ß-lactoglobulin was monitored in the presence or absence of the chaperone HSP 27. Aggregation of 8 mg/ml ß-lactoglobulin was monitored using 1.25 μM Tol3 and 1.25 μM S25 in PBS, pH 7.4 with 2.5 mM EDTA and 0.05% sodium azide. When the chaperone HSP 27 was added it was added to a final concentration of 0.4 mg/ml. HSP 27 was also run in the absence of R-lactoglobulin as a control. Aggregation was initiated by heating the protein solution to 68° C. in a 96 well half-volume clear plate (Biomol international, Inc). The fluorescence intensity was then recorded every 2 minutes, with shaking between reads. The excitation wavelength was set to 550 nm and the emission was set to 610 nm on a BMG Fluorstar plate reader. The fluorescence intensity of the starting point was subtracted from the remaining points. […] Since Hsp 27 is binding with unfolded BLG intermediate, thus preventing protein aggregation, these styryl cyanine dyes are detecting protein aggregation, as opposed to unfolding.

Hen Egg White Lysozyme = molecular target: T4, Hen Egg White Lysozyme (Gallus gallus, UniProt P00698); experiment: Inhibition of Lysozyme aggregation at pH 12.2, S-25/Tol3 readout; assay type: biochemical; conditions: 510 μM Chitotriose, 300 μM Lysozyme, aggregation induced at pH 12.2
T4 construct: Hen egg white lysozyme was solubilized in 10 mM HCl; from tissue; host or cells: hen egg white
T4 sequence (P00698 19-147): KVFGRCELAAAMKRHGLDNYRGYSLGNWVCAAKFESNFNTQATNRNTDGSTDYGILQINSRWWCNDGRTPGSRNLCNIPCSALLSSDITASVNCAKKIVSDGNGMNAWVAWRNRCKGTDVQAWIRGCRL
Method: Hen egg white Lysozyme (300 μM) was incubated with or without N,N′,N″-triacetyl-chitotriose (Chitotriose, 510 μM) in 10 mM potassium phosphate, pH 7.3 for 16 hours. Aggregation was induced by 3.5 fold dilution into 50 mM potassium phosphate, pH 12.2. Aggregation was followed by removing an aliquot of the protein and diluting such that the final composition was 20 μM protein, 50 mM potassium phosphate, pH 7, 3 μM S-25 and 3 μM Tol3. Protein was incubated with dye for 15 minutes prior to determining the fluorescence using a BioTek Synergy Mx plate scanner, with excitation setting at 515 nm and emission setting at 603 nm, both with a 9 nm slit-width. The zero time point was taken before dilution to pH 12.2. Readings were taken in at least triplicate in a Greiner μClear black, clear bottom 96-well microplate. Aggregation was followed for several weeks at room temperature (19°-23° C.).

NC(N)=O [urea]
IgG unfolded (Rabbit-anti-goat IgG [1]): approximately 60%

Cc1c[n+](CCCCCCCCCC[n+]2ccc(/C=C/c3ccc(N(C)C)cc3)c(C)c2)ccc1/C=C/c1ccc(N(C)C)cc1 [TOL3]
Dye freely dissolved in buffer: Emission wavelength [2]: 611 nm | Dye freely dissolved in buffer: Excitation wavelength [2]: 471 nm | In the presence of aggregate: Emission wavelength [3]: 603 nm | In the presence of aggregate: Excitation wavelength [3]: 511 nm | Fluorescence enhancement (aggregate/native IgG) ([4]; Ammonium Sulfate, 10 mM): 15.6 fold | Fluorescence enhancement (aggregate/native IgG) ([4]; Ammonium Sulfate, 100 mM): 13.4 fold | Fluorescence enhancement (aggregate/native IgG) ([4]; Ammonium Sulfate, 300 mM): 16.9 fold | Fluorescence enhancement (aggregate/native IgG) ([4]; Arginine, 200 mM): 18.6 fold | Fluorescence enhancement (aggregate/native IgG) ([4]; Arginine, 500 mM): 17.6 fold | Fluorescence enhancement (aggregate/native IgG) ([4]; Ascoric Acid, 1 mM): 15.4 fold | Fluorescence enhancement (aggregate/native IgG), Average ([4]; Average over all excipient conditions): 17.6 fold | Fluorescence enhancement (aggregate/native IgG) ([4]; Calcium Chloride, 10 mM): 14.9 fold | Fluorescence enhancement (aggregate/native IgG) ([4]; Calcium Chloride, 50 mM): 13.9 fold | Fluorescence enhancement (aggregate/native IgG) ([4]; Calcium Chloride, 200 mM): 14.8 fold | Fluorescence enhancement (aggregate/native IgG) ([4]; DTT, 1 mM): 13.8 fold | Fluorescence enhancement (aggregate/native IgG) ([4]; Glycine, 0.5%): 16.3 fold | Fluorescence enhancement (aggregate/native IgG) ([4]; Glycine, 2%): 15.5 fold | Fluorescence enhancement (aggregate/native IgG) ([4]; Lactose, 100 mM): 19.9 fold | Fluorescence enhancement (aggregate/native IgG) ([4]; Lactose, 300 mM): 34.6 fold | Fluorescence enhancement (aggregate/native IgG) ([4]; Mannitol, 100 mM): 17.5 fold | Fluorescence enhancement (aggregate/native IgG) ([4]; Mannitol, 300 mM): 25.2 fold | Fluorescence enhancement (aggregate/native IgG) ([4]; Mannitol, 600 mM): 27.5 fold | Fluorescence enhancement (aggregate/native IgG) ([4]; Sodium Chloride, 10 mM): 16.0 fold | Fluorescence enhancement (aggregate/native IgG) ([4]; Sodium Chloride, 100 mM): 16.2 fold | Fluorescence enhancement (aggregate/native IgG) ([4]; Sodium Chloride, 1000 mM): 17.4 fold | Fluorescence enhancement (aggregate/native IgG) ([4]; Sorbitol, 100 mM): 20.0 fold | Fluorescence enhancement (aggregate/native IgG) ([4]; Sorbitol, 300 mM): 19.2 fold | Fluorescence enhancement (aggregate/native IgG) ([4]; Sorbitol, 600 mM): 29.3 fold | Fluorescence enhancement (aggregate/native IgG) ([4]; Trehalose, 100 mM): 18.9 fold | Fluorescence enhancement (aggregate/native IgG) ([4]; Trehalose, 300 mM): 20.1 fold | Fluorescence enhancement (aggregate/native IgG) ([4]; Trehalose, 600 mM): 30.4 fold | Fluorescence enhancement (aggregate/native IgG) ([4]; Tween 20, 0.01%): 8.5 fold | Fluorescence enhancement (aggregate/native IgG) ([4]; Tween 20, 0.2%): 3.4 fold | Fluorescence enhancement (aggregate/native IgG) ([4]; X100, 0.01%): 6.2 fold | Fluorescence enhancement (aggregate/native IgG) ([4]; X100, 0.2%): 3.4 fold | Fluorescence enhancement (aggregate/native IgG) ([4]; X100, 1%): 1.9 fold | Detection of BLG thermal shift (melting) peak (β-lactoglobulin (BLG)): able to detect BLG thermal shift peaks | Fluorescence enhancement with IgG aggregates relative to controls without IgG (Rabbit-anti-goat IgG [5]; aggregated IgG 0.033 mg/mL): significant fluorescence enhancement | Fluorescence enhancement with unfolded IgG monomer relative to controls without IgG (Rabbit-anti-goat IgG [5]; monomeric IgG 0.033 mg/mL): insignificant fluorescence enhancement

Hsp 27: heat shock protein, chaperone
Effect on heat-induced aggregation of BLG (ß-lactoglobulin): significantly prevent the aggregation of BLG

CC(=O)N[C@H]1[C@H](O[C@H]2[C@H](O)[C@@H](NC(C)=O)C(O)O[C@@H]2CO)O[C@H](CO)[C@@H](O[C@@H]2O[C@H](CO)[C@@H](O)[C@H](O)[C@H]2NC(C)=O)[C@@H]1O (stereo partly drawn) [Chitotriose, N,N′,N″-triacetyl-chitotriose]
Effect on Lysozyme aggregation (Hen Egg White Lysozyme): inhibits Lysozyme aggregation
